Tests used:
Type in all cases: cell-based
HCV replicon [1] = experiment: TaqMan RT-PCR Assay (9-13 replicon cells); conditions: 24-48 hours with compound
Experimental: Actively dividing 9-13 replicon cells were seeded at the density of 3×10^4 cells/well in the volume of 1 ml/well into 24 well plate(s). The cells were then incubated at 37° C. and 5% CO2 for 24
Various concentrations of compounds (in the volume of 10 μl) were added into each well 24 hours after seeding the cells. The cells were incubated with the compounds for another 24-48 hours.
After incubating the 9-13 replicon cells with the compounds for 24-48 hours, media were aspirated off and RNA samples were prepared from each well.
TaqMan® (Roche Molecular Systems) one step RT-PCR was performed using the RNA samples according to the manufacturer's manual. Briefly, properly diluted RNA sample, upstream primer, downstream primer, FAM-labeled probe oligo were mixed and water was added to make up the volume to 25 μl. Equal volume of 2× TaqMan Master Mix were added and the reaction was performed in an ABI Prism 7700 Sequence Detector (Applied Biosystems).

HCV replicon [2] = experiment: HCV Replicon Assay (luciferase, 5-2 Luc replicon cells); conditions: 5-2 Luc replicon cells (Huh7), 24-48 hours with compound, luciferase counts
Summary of the method: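 Huh7-derived 5-2 Luc replicon cells were seeded at 5000-7500 cells/well, grown 24 h at 37° C. and 5% CO2, then exposed to serial compound concentrations for 24-48 hours.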

HCV replicon [3] = experiment: Immunoblotting Assay (9-13 replicon cells); conditions: 9-13 replicon cells (Huh7), 48 hours with compound
Experimental: Actively dividing 9-13 replicon cells (Huh7 cells comprising an HCV replicon) were seeded at the density of 1×10^5 cells/well in the volume of 2 ml/well into 6 well plate(s). The cells were then incubated at 37° C. and 5% CO2 for 24 hours.
Various concentrations of compounds (in the volume of 10 μl) were added into each well 24 hours after seeding the cells. The cells were incubated with the compounds for another 48 hours.
Protein samples were prepared from the cultured cells and resolved on a SDS-PAGE gel.
After electrophoresis, the protein samples on the SDS-PAGE gel were transferred to a nitrocellulose membrane.
The membrane was blocked with 5% non-fat milk in PBS for 1 hr at room temperature.
Primary antibody incubation was performed for 1 hour at room temperature before the membrane was washed for 3 times with PBST (PBS plus 0.1% Tween 20), 15 minutes each.
Horse Radish Peroxidase conjugated secondary antibody incubation was performed for 1 hour at room temperature before the membrane was washed for 3 times with PBST (PBS plus 0.1% Tween 20), 15 minutes each.
The membrane was then soaked in substrate solution (Pierce) and exposed to a film.

SMILES	Activity (concentration of inhibitory activity) (HCV replicon [1])	Activity (concentration of inhibitory activity) (HCV replicon [2])	Activity (concentration of inhibitory activity) (HCV replicon [3])
Cc1cc2cc(NC(=O)C3CCCC3)ccc2n1C(=O)c1c(Cl)cccc1Cl [Compound 16a-1, 5-Cyclopentanecarbonylamino-1-(2′,6′-dichlorobenzoyl)-2-methylindole]	a (“a” indicates inhibitory activity at a concentration of less than 10 micromolar)	a (“a” indicates inhibitory activity at a concentration of less than 10 micromolar)	
CC(C)(C)c1cc2cc(NC(=O)c3cccs3)ccc2[nH]1 [Compound 281]		a (“a” indicates inhibitory activity at a concentration of less than 10 micromolar)	a (“a” indicates inhibitory activity at a concentration of less than 10 micromolar)
CCC(C)(C)c1cc2cc(NC(=O)c3cccs3)ccc2[nH]1 [Compound 288]		b (“b” indicates activity is at a concentration greater than 10 micromolar)	
CCC(C)(C)c1cc2cc(NC(=O)c3cc(Cl)nc(Cl)c3)ccc2[nH]1 [Compound 289]		a (“a” indicates inhibitory activity at a concentration of less than 10 micromolar)	
CC(C)(C)c1cc2cc(NC(=O)C3CC3)ccc2[nH]1 [Compound 290]		a (“a” indicates inhibitory activity at a concentration of less than 10 micromolar)	
